Test results as given in patent US9365551B2, “2-(benzyloxy) benzamides as LRRK2 kinase inhibitors” (Glaxo Group Limited, priority 2010, dated 2016).

How the values were obtained:
[1] = molecular target: T1, 6His-Tev-LRRK2 (1326-2527) (Homo sapiens, UniProt Q5S007); assay: LRRK2 peptide substrate assay; type: biochemical; details: mean pIC50 of multiple test results
T1 construct: A LRRK2 cDNA encoding residues 1326-2527 was received from Dundee University; made in house; host or cells: Spodoptera frugiperda (Sf9) insect cells, baculovirus (pFB-HTb)
T1 sequence (Q5S007 1326-2527): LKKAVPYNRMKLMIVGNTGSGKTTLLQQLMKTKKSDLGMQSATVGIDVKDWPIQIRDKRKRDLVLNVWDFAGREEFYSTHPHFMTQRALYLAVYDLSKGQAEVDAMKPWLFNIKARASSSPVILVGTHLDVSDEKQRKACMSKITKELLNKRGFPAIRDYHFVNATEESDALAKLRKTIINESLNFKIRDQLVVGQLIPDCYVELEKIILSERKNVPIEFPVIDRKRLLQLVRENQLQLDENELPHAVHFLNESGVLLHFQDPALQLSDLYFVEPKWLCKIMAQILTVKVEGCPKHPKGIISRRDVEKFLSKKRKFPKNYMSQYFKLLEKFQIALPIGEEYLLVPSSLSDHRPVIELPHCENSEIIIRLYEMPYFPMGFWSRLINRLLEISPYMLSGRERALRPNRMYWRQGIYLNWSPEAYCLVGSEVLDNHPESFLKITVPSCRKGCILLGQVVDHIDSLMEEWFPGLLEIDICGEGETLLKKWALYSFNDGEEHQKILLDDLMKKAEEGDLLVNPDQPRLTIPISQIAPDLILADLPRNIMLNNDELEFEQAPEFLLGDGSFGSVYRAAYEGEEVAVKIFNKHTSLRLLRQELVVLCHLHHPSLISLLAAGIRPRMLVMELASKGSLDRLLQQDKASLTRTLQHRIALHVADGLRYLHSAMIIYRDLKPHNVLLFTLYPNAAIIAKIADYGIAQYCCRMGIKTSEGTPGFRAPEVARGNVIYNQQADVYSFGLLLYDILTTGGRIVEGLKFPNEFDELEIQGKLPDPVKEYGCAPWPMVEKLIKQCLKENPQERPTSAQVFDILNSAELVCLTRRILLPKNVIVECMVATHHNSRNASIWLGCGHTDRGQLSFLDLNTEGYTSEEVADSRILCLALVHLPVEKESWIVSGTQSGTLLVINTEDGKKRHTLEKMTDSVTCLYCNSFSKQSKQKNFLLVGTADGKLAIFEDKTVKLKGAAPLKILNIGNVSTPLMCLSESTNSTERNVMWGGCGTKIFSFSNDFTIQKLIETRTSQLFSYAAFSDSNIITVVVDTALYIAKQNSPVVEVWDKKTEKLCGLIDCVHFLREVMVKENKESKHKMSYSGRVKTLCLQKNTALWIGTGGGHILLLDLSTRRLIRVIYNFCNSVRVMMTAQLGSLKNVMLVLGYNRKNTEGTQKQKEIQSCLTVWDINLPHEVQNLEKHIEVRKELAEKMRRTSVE
Procedure: (§1) Compounds of formula (I) may be tested for in vitro kinase activity in accordance with the following assays, using the non natural, in vitro, substrates moesin and the Longer Biotin-LRRKtide. Moesin and a shorter version of the peptide were identified as substrates in Jaleel et al. (2007, Biochem J, 405: 307-317).
LRRK2 Peptide Substrate Assay
a) 100 nl of a 1:4 serial dilution of test compound with a top final assay concentration of 30 μM is added to certain wells in a low volume 384 well black plate. 100 nl of DMSO is used in certain wells as controls.
(§2) b) 3 μl enzyme solution (80 nM purified recombinant 6His-Tev-LRRK2 (1326-2527) in assay buffer: 50 mM Hepes (pH 7.2), 10 mM MgCl2, 150 mM NaCl, 5% glycerol, 0.0025% triton X-100 and 1 mM DTT) is added to certain wells. 3 μl assay buffer is added to certain wells as a 100% inhibition (no enzyme) control. c) After incubation at room temperature for 30 minutes, 3 μl substrate solution (2 μM Biotin-LRRKtide peptide substrate and ATP at Km in assay buffer) is added to each well. Plates are then incubated for a further 1-2 hours at room temperature (incubation time varies depending upon rate and linearity of reaction with differing enzyme batches). d) 6 μl detection solution (50 nM Streptavidin SureLight® APC (PerkinElmer), 4 nM Eu-W1024 labelled anti-rabbit IgG antibody (PerkinElmer), 1:500 dilution (dilution determined on a batch to batch basis) of Phospho-Ezrin (Thr567)/Radixin (Thr564)/Moesin (Thr558) Polyclonal Antibody (New England Biolabs) and 60 mM EDTA in buffer: 40 mM Hepes (pH 7.2), 150 mM NaCl, 0.03% BSA) is added to each well. Plates are then incubated for a further 2 hours at room temperature before reading on a suitable plate reader (Excitation 330 nm, emission 620 nm (Eu) and 665 nm (APC)). Data is analysed using ActivityBase software (IDBS). LRRK2 AlphaScreen Desensitised Protein Substrate Assay a) 100 nl of a 1:4 serial dilution of test compound with a top final assay concentration of 30 μM is added to certain wells in a low volume 384 well black plate. 100 nl of DMSO is used in certain wells as controls. b) 3 μl enzyme solution (80 nM purified recombinant 6His-Tev-LRRK2 (1326-2527) in assay buffer: 50 mM Hepes (pH 7.2), 10 mM MgCl2, 150 mM NaCl, 5% glycerol, 0.0025% triton X-100 and 1 mM DTT) is added to certain wells. 3 μl assay buffer is added to certain wells as a 100% inhibition (no enzyme) control. c) After incubation at room temperature for 30 minutes, 3 μl substrate solution (200 nM GST-PS-Moesin (400-577) and 2 mM ATP in assay buffer) is added to each well. Plates are then incubated for 20 minutes at room temperature. d) 6 μl detection solution (1:250 dilution of AlphaLisa Protein A Acceptor beads (PerkinElmer), 1:64 dilution of AlphaLisa Gluthathione Donor beads (PerkinElmer) and 1:600 dilution (dilution determined on a batch to batch basis) of Phospho-Ezrin (Thr567)/Radixin (Thr564)/Moesin (Thr558) Polyclonal Antibody (New England Biolabs) in a buffer: 50 mM Hepes (pH 7.5), 250 mM NaCl, 60 mM EDTA, 1% PEG and 0.01% Brij 35) is added to each well. Plates are then incubated for a further 2 hours at room temperature in the dark before reading on an EnVision™ plate reader with AlphaScreen HTS turbo option module and AlphaScreen settings. Data is analysed using ActivityBase software (IDBS). Pharmacological Data

[2] = molecular target: T1, 6His-Tev-LRRK2 (1326-2527); assay: LRRK2 AlphaScreen desensitised protein substrate assay; type: biochemical; details: mean pIC50 of multiple test results
Procedure: as §1, §2

[3] = Biotin-LRRKtide peptide substrate, ATP at Km, read-out: LRRK2 peptide substrate assay (pIC50) (converted)
[4] = stated as threshold, read-out: pIC50 in the LRRK2 peptide substrate assay (bounds) (converted)
[5] = GST-PS-Moesin (400-577) substrate, 2 mM ATP, read-out: LRRK2 alphascreen desensitized protein substrate assay (pIC50) (converted)
[6] = stated as threshold, read-out: pIC50 in the LRRK2 alphascreen desensitised protein substrate assay (bounds) (converted)

Structure (SMILES)	IC50 [1, 3]	IC50 [1, 4]	IC50 [2, 5]	IC50 [2, 6]
Cn1cc(-c2cc(C(=O)Nc3cccnc3)c(OCc3ccc(F)cc3)cc2CN2CCOCC2)cn1 [Example 17, 2-{[(4-Fluorophenyl)methyl]oxy}-5-(1-methyl-1H-pyrazol-4-yl)-4-(4-morpholinylmethyl)-N-3-pyridinylbenzamide]	50.1 nM	≤ 100 nM	158 nM	≤ 316 nM
Cc1nocc1NC(=O)c1cc(-c2cnn(C)c2)c(CN2CCOCC2)cc1OCc1ccc(F)cc1 [Example 18, 2-{[(4-Fluorophenyl)methyl]oxy}-N-(3-methyl-4-isoxazolyl)-5-(1-methyl-1H-pyrazol-4-yl)-4-(4-morpholinylmethyl)benzamide]	12.6 nM	≤ 100 nM	398 nM	≤ 25100 nM
Cn1cc(-c2cc(C(=O)Nc3cccnc3)c(OCc3ccc(F)cc3F)cc2CN2CCOCC2)cn1 [Example 20, 2-{[(2,4-Difluorophenyl)methyl]oxy}-5-(1-methyl-1H-pyrazol-4-yl)-4-(4-morpholinylmethyl)-N-3-pyridinylbenzamide]	63.1 nM	≤ 100 nM	200 nM	≤ 316 nM
Cc1nocc1NC(=O)c1cc(-c2cnn(C)c2)c(CN2CCOCC2)cc1OCc1ccc(F)cc1F [Example 22, 2-{[(2,4-Difluorophenyl)methyl]oxy}-N-(3-methyl-4-isoxazolyl)-5-(1-methyl-1H-pyrazol-4-yl)-4-(4-morpholinylmethyl)benzamide]	–	> 25100 nM	–	≤ 25100 nM
Cn1cc(-c2cc(C(=O)Nc3cccnc3)c(OCc3ccccc3)cc2C(=O)N2CCOCC2)cn1 [Example 23, 5-(1-Methyl-1H-pyrazol-4-yl)-4-(4-morpholinylcarbonyl)-2-[(phenylmethyl)oxy]-N-3-pyridinylbenzamide]	12.6 nM	≤ 100 nM	200 nM	≤ 316 nM
Cn1cc(-c2cc(C(=O)Nc3ccnnc3)c(OCc3ccccc3)cc2C(=O)N2CCOCC2)cn1 [Example 24, 5-(1-Methyl-1H-pyrazol-4-yl)-4-(4-morpholinylcarbonyl)-2-[(phenylmethyl)oxy]-N-4-pyridazinylbenzamide]	–	≤ 1260 nM	–	≤ 25100 nM
Cc1nocc1NC(=O)c1cc(-c2cnn(C)c2)c(C(=O)N2CCOCC2)cc1OCc1ccccc1 [Example 25, N-(3-Methyl-4-isoxazolyl)-5-(1-methyl-1H-pyrazol-4-yl)-4-(4-morpholinylcarbonyl)-2-[(phenylmethyl)oxy]benzamide]	–	≤ 100 nM	–	≤ 25100 nM
Cn1cc(-c2cc(C(=O)Nc3cccnc3)c(OCc3ccc(F)cc3)cc2C(=O)N2CCOCC2)cn1 [Example 26, 2-{[(4-Fluorophenyl)methyl]oxy}-5-(1-methyl-1H-pyrazol-4-yl)-4-(4-morpholinylcarbonyl)-N-3-pyridinylbenzamide]	–	≤ 100 nM	–	≤ 316 nM
Cn1cc(-c2cc(C(=O)Nc3ccnnc3)c(OCc3ccc(F)cc3)cc2C(=O)N2CCOCC2)cn1 [Example 27, 2-{[(4-Fluorophenyl)methyl]oxy}-5-(1-methyl-1H-pyrazol-4-yl)-4-(4-morpholinylcarbonyl)-N-4-pyridazinylbenzamide]	50.1 nM	≤ 100 nM	1580 nM	≤ 25100 nM
Cn1cc(-c2cc(OCc3ccc(F)cc3)c(C(=O)Nc3cccnc3)cc2C(=O)N2CCOCC2)cn1 [Example 28, 2-{[(4-Fluorophenyl)methyl]oxy}-4-(1-methyl-1H-pyrazol-4-yl)-5-(4-morpholinylcarbonyl)-N-3-pyridinylbenzamide]	–	≤ 1260 nM	–	≤ 25100 nM
Cn1cc(-c2cc(C(=O)Nc3cccnc3)c(OCc3ccccc3)cc2C(=O)N2CCCCC2)cn1 [Example 31, 5-(1-Methyl-1H-pyrazol-4-yl)-2-[(phenylmethyl)oxy]-4-(1-piperidinylcarbonyl)-N-3-pyridinylbenzamide]	6.31 nM	≤ 10 nM	50.1 nM	≤ 316 nM
CN(C)C(=O)c1cc(OCc2ccccc2)c(C(=O)Nc2cccnc2)cc1-c1cnn(C)c1 [Example 32]	50.1 nM	≤ 100 nM	200 nM	≤ 316 nM
O=C(Nc1cccnc1)c1cc(C(F)(F)F)c(CN2CCOCC2)cc1OCc1ccccc1 [Example 33, 2-(Benzyloxy)-4-(morpholinomethyl)-N-(pyridin-3-yl)-5-(trifluoromethyl)benzamide]	–	≤ 100 nM	–	≤ 316 nM
O=C(Nc1ccnnc1)c1cc(C(F)(F)F)c(CN2CCOCC2)cc1OCc1ccccc1 [Example 34, 4-(4-Morpholinylmethyl)-2-[(phenylmethyl)oxy]-N-4-pyridazinyl-5-(trifluoromethyl)benzamide]	–	≤ 1260 nM	–	≤ 25100 nM
O=C(Nc1cccnc1)c1cc(C(F)(F)F)c(CN2CCCCC2)cc1OCc1ccccc1 [Example 35, 2-[(Phenylmethyl)oxy]-4-(1-piperidinylmethyl)-N-3-pyridinyl-5-(trifluoromethyl)benzamide]	–	≤ 1260 nM	–	≤ 25100 nM
O=C(Nc1ccnnc1)c1cc(C(F)(F)F)c(CN2CCCCC2)cc1OCc1ccccc1 [Example 36, 2-[(Phenylmethyl)oxy]-4-(1-piperidinylmethyl)-N-4-pyridazinyl-5-(trifluoromethyl)benzamide]	–	≤ 1260 nM	–	≤ 25100 nM
